Laboratory results published in ChEMBL document CHEMBL3763094, “Synthesis of 2-arylfuro[3,2-b]pyridines: Effect of the C2-aryl group on melatoninergic activity” (Eur J Med Chem, 2016).
Activity calls are given as the source filed them. The calls are words filed in the database; no cut-off is given here.

Tests used:
[1] = target: T1, Melatonin receptor type 1A (Homo sapiens, UniProt P48039); experiment: Agonist activity at MT1 receptor (unknown origin) expressed in CHO cells incubated for 1 hr by [35S]GTPgammaS binding assay; format: functional, cell-based
T1 sequence (P48039 whole entry): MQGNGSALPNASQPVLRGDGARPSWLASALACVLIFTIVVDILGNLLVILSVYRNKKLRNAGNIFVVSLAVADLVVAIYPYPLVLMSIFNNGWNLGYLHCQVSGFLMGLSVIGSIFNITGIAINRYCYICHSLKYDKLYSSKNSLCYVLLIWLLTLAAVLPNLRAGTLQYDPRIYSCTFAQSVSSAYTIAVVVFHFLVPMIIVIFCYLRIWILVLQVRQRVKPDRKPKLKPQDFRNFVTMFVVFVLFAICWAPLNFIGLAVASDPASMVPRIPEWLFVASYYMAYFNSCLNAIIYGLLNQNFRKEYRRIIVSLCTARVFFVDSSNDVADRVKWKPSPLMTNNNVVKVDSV

[2] = target: T1, Melatonin receptor type 1A; experiment: Displacement of [125I]2-Iodomelatonin from human MT1 receptor expressed in HEK293 cells after 120 mins by radioligand competition assay; format: cell-based
[3] = target: T2, Melatonin receptor type 1B (Homo sapiens, UniProt P49286); experiment: Displacement of [125I]2-Iodomelatonin from human MT2 receptor expressed in HEK293 cells after 120 mins by radioligand competition assay; format: cell-based
T2 sequence (P49286 whole entry): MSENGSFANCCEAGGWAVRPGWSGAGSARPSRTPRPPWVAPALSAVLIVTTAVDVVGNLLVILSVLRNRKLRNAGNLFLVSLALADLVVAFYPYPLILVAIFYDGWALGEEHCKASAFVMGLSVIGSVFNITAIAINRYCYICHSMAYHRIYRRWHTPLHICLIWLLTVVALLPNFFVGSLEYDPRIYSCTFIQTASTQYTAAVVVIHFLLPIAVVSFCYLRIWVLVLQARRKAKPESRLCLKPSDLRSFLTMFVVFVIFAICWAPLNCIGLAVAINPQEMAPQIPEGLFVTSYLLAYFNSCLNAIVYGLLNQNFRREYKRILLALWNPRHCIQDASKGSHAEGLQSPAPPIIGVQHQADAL

Homo sapiens = species: Homo sapiens; experiment: Selectivity ratio of Ki for human MT1 receptor to Ki for human MT2 receptor
[4] = target: T3, Melatonin receptor type 1B (Homo sapiens) (UniProt P49286); experiment: Agonist activity at MT2 receptor (unknown origin) expressed in CHO cells incubated for 1 hr by [35S]GTPgammaS binding assay; format: functional, cell-based
T3 sequence (whole entry): T2 sequence (P49286 whole entry)

[5] = target: T1, Melatonin receptor type 1A; experiment: Antagonist activity at MT1 receptor (unknown origin) expressed in CHO cells assessed as inhibition of melatonin-induced response for 30 mins by [35S]GTPgammaS binding assay; format: functional, cell-based
[6] = target: T3, Melatonin receptor type 1B (Homo sapiens); experiment: Partial agonist activity at MT2 receptor (unknown origin) expressed in CHO cells incubated for 1 hr by [35S]GTPgammaS binding assay; format: functional, cell-based
[7] = target: T3, Melatonin receptor type 1B (Homo sapiens); experiment: Antagonist activity at MT2 receptor (unknown origin) expressed in CHO cells assessed as inhibition of melatonin-induced response for 30 mins by [35S]GTPgammaS binding assay; format: functional, cell-based
[8] = target: T1, Melatonin receptor type 1A; experiment: Partial agonist activity at MT1 receptor (unknown origin) expressed in CHO cells incubated for 1 hr by [35S]GTPgammaS binding assay; format: functional, cell-based

SMILES | Activity [1] | Ki [2] [nM] | Ki [3] [nM] | Ratio Ki (Homo sapiens) | Activity [4] | Activity [5] | Activity [6] | Activity [7] | Activity [8]
COc1ccc2oc(-c3ccccc3)c(CCNC(C)=O)c2n1 | Active | 0.04 | 0.14 | 0.3 | Active |  |  |  | 
COc1ccc2oc(I)c(CCNC(C)=O)c2n1 | Active | 0.2 | 0.08 | 2.5 | Active |  |  |  | 
COc1cc2c(CCNC(C)=O)c[nH]c2cn1 |  | 9.5 | 35 | 0.3 |  |  |  |  | 
COc1ccc2oc(-c3c(C)cccc3C)c(CCNC(C)=O)c2n1 |  | 120 | 9 | 13.3 |  | Active | Active |  | 
COc1ccc2[nH]cc(CCNC(C)=O)c2n1 |  |  |  | 0.7 |  |  |  |  | 
COc1ccc2oc(-c3cc4ccccc4c4ccccc34)c(CCNC(C)=O)c2n1 |  | 68 | 5 | 13.6 |  |  |  | Active | Active
COc1ccc2oc(-c3cccc4ccccc34)c(CCNC(C)=O)c2n1 |  | 198 | 1.3 | 152 |  | Active |  | Active | 
COc1ccc2oc(-c3c4ccccc4cc4ccccc34)c(CCNC(C)=O)c2n1 |  | 31 | 5 | 6.2 |  |  |  | Active | Active
CCC(=O)NCCCc1cc(OC)ccc1OCc1cccc(OC)c1 |  |  |  | 790 |  |  |  |  | 
COc1cc2c(CCNC(C)=O)coc2cn1 |  | 73 | 59 | 1.2 |  |  |  |  | 
COc1ccc2occ(CCNC(C)=O)c2n1 | Active | 1.6 | 1.2 | 1.5 | Active |  |  |  | 
COc1ccc2oc(-c3ccc4ccccc4c3)c(CCNC(C)=O)c2n1 | Active | 2.2 | 0.09 | 22.2 |  |  |  | Active | 
COc1ccc2oc(-c3ccc(F)cc3)c(CCNC(C)=O)c2n1 | Active | 0.2 | 0.03 | 6.7 | Active |  |  |  | 
